Assay results reported in patent US12312359B2 (Vitae Pharmaceuticals, LLC, priority 2016, dated 2025).

How the values were obtained:
[1] = biological target: T1, biotinylated wild-type menin and MLL-AF9 fusion protein (menin/MLL binding) (Homo sapiens, UniProt O00255); assay: Assay 1: menin/MLL binding AlphaLISA assay, wild-type menin; conditions: Table 30; column head does not say wild-type or mutated menin
T1 construct: made in house; host or cells: menin: E. coli; MLL-AF9-FLAG: HEK293 cells, used as cleared lysate
T1 sequence (O00255 1-610): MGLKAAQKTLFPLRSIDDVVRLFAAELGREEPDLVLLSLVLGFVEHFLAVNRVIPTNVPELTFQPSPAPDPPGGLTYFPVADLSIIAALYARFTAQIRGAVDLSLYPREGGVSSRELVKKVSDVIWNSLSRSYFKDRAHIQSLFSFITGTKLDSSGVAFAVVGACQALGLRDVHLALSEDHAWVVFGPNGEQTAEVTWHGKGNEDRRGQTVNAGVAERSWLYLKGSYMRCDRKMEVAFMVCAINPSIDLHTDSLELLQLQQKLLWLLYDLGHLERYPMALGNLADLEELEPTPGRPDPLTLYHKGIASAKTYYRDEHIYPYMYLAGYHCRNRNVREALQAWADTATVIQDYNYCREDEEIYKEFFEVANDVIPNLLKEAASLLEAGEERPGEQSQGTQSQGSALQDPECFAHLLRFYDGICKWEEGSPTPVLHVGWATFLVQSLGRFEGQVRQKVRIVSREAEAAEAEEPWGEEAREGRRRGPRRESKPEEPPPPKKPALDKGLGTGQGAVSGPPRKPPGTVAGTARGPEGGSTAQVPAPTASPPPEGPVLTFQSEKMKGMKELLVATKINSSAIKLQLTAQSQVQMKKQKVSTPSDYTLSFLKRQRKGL
In short: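 Compound was preincubated 30 min at room temperature with biotinylated menin (5 nM) and MLL-AF9-FLAG lysate from HEK293 cells, pH 7.4 buffer with 5% DMSO and DTT. Bead-based Alpha signal after 60 min with streptavidin donor and anti-FLAG acceptor beads; four-parameter logistic fit gave IC50.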

[2] = system: human acute monocytic leukemia cell line MV-4-11; assay: Assay 2: cell proliferation assay (ATP quantitation, CellTiter-Glo), MV-4-11; format: cell-based; conditions: Homo sapiens, MV4-11, 72 h, MV-4-11 cells
In short: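 Read-out is CellTiter-Glo luminescence quantifying ATP. Compound exposure lasted 72 h at 37° C., 5% CO2, with 1.67×10^4 MV-4-11 cells per well in 10% FBS medium, alongside HL-60 toxicity-control cells.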

| SMILES | IC50 [1] | EC50 [2] |
| --- | --- | --- |
| Cc1ncc(Oc2ccc(F)cc2-c2ccnn2C(C)C)c(N2CCC3(CCN(Cc4ccc5[nH]c(=O)[nH]c5c4)C3)C2)n1 (stereo not drawn) [Example 126, 5-((7-(5-(4-fluoro-2-(1-isopropyl-1H-pyrazol-5-yl)phenoxy)-2-methylpyrimidin-4-yl)-2,7-diazaspiro[4.4]nonan-2-yl)methyl)-1,3-dihydro-2H-benzo[d]imidazol-2-one] | < 100 nM | 100 to 1000 nM |
| CC(C)c1ccccc1-c1cc(F)ccc1Oc1cncnc1N1CC2(CN(C(=O)Cc3ccc(C#N)cc3)C2)C1 [Example 228, 4-(2-(6-(5-((5-fluoro-2′-isopropyl-[1,1′-biphenyl]-2-yl)oxy)pyrimidin-4-yl)-2,6-diazaspiro[3.3]heptan-2-yl)-2-oxoethyl)benzonitrile] | < 100 nM | 100 to 1000 nM |
| CC(C)c1ncncc1-c1cc(F)ccc1Oc1cncnc1N1CC2(CC(NCc3ccc(F)cc3)CO2)C1 (stereo not drawn) [Example 18, 2-(5-(4-fluoro-2-(4-isopropylpyrimidin-5-yl)phenoxy)pyrimidin-4-yl)-N-(4-fluorobenzyl)-5-oxa-2-azaspiro[3.4]octan-7-amine] | < 100 nM | 100 to 1000 nM |
| NC1Cc2ccc(-c3cc(F)ccc3Oc3cncnc3N3CC4(CN(CC5CCOCC5)C4)C3)cc2C1 (stereo not drawn) [Example 68, 5-(5-fluoro-2-((4-(6-((tetrahydro-2H-pyran-4-yl)methyl)-2,6-diazaspiro[3.3]heptan-2-yl)pyrimidin-5-yl)oxy)phenyl)-2,3-dihydro-1H-inden-2-amine] | < 100 nM | ≥ 1000 nM |
| CC(C)N(C(=O)c1cc(F)ccc1Oc1cncnc1N1CC2(CN(CC[C@H]3CC[C@H](NC(=O)CC(C)(C)C)CC3)C2)C1)C(C)C [Example 87, 2-((4-(6-(2-((1r,4r)-4-(3,3-dimethyl-butanamido)cyclo-hexyl)ethyl)-2,6-diazaspiro[3.3]heptan-2-yl)pyrimidin-5-yl)oxy)-5-fluoro-N,N-diisopropyl-benzamide] | < 100 nM | 100 to 1000 nM |
| CC(C)N(C(=O)c1cc(F)ccc1Oc1cncnc1N1CC2(CCN(C[C@H]3CC[C@H](NC(=O)OC(C)(C)C)CC3)CC2)C1)C(C)C [Example 99A, tert-butyl ((1r,4r)-4-((2-(5-(2-(diisopropylcarbamoyl)-4-fluorophenoxy)pyrimidin-4-yl)-2,7-diazaspiro[3.5]nonan-7-yl)methyl)cyclohexyl)carbamate] | < 100 nM | < 100 nM |
| N#Cc1ccc2c(CN3CCC4(CCN(c5ncncc5Oc5ccc(F)cc5OC5CCCC5)C4)C3)c[nH]c2c1 (stereo not drawn) [Example 192, 3-((7-(5-(2-(cyclopentyloxy)-4-fluorophenoxy)pyrimidin-4-yl)-2,7-diazaspiro[4.4]nonan-2-yl)methyl)-1H-indole-6-carbonitrile] | < 100 nM | 100 to 1000 nM |
| Cn1c(-c2cc(F)ccc2Oc2cncnc2N2CCC3(CCN(Cc4ccc5c(c4)[nH]c(=O)n5CCO)C3)C2)c(C2CC2)ccc1=O (single isomer, unassigned) [Example 81A, 5-((7-(5-(2-(3-cyclopropyl-1-methyl-6-oxo-1,6-dihydropyridin-2-yl)-4-fluorophenoxy)pyrimidin-4-yl)-2,7-diazaspiro[4.4]nonan-2-yl)methyl)-1-(2-hydroxyethyl)-1H-benzo[d]imidazol-2(3H)-one] | < 100 nM | 100 to 1000 nM |
| CC(C)N(C(=O)c1cc(F)ccc1Oc1cncnc1N1CC2(CCN(CC3CCOCC3)C2)C1)C(C)C [Example 111, 5-fluoro-N,N-diisopropyl-2-((4-(6-((tetrahydro-2H-pyran-4-yl)methyl)-2,6-diazaspiro[3.4]octan-2-yl)pyrimidin-5-yl)oxy)benzamide] | < 100 nM | < 100 nM |
| CC(C)n1nccc1-c1cc(F)ccc1Oc1cncnc1N1CCC2(CCN(Cc3ccc4nn[nH]c4c3)C2)C1 (stereo not drawn) [Example 198, 6-((7-(5-(4-fluoro-2-(1-isopropyl-1H-pyrazol-5-yl)phenoxy)pyrimidin-4-yl)-2,7-diazaspiro[4.4]nonan-2-yl)methyl)-1H-benzo[d][1,2,3] triazole] | < 100 nM | < 100 nM |
| CC(C)c1ncncc1-c1cc(F)ccc1Oc1cncnc1N1CC2(CC(NCC34CC(C#N)(C3)C4)C2)C1 [Example 118, 3-(((2-(5-(4-fluoro-2-(4-isopropylpyrimidin-5-yl)phenoxy)pyrimidin-4-yl)-2-azaspiro[3.3]heptan-6-yl)amino)methyl)bi-cyclo[1.1.1]pentane-1-carbonitrile] | < 100 nM | 100 to 1000 nM |
| CC(C)N(C(=O)c1cc(F)ccc1Oc1cncnc1N1CC2(CCN(C3CCc4cc(F)ccc4C3)C2)C1)C(C)C (stereo not drawn) [Example 114, 5-fluoro-2-((4-(6-(6-fluoro-1,2,3,4-tetrahydronaphthalen-2-yl)-2,6-diazaspiro[3.4]octan-2-yl)pyrimidin-5-yl)oxy)-N,N-diisopropylbenzamide] | < 100 nM | 100 to 1000 nM |
| N#Cc1ccc(-c2cc(F)ccc2Oc2cncnc2N2CCC3(CCN(Cc4ccc5c(c4)CC(=O)N5)C3)C2)c(C2CC2)c1 (stereo not drawn) [Example 204, 2-cyclopropyl-5′-fluoro-2′-((4-(7-((2-oxoindolin-5-yl)methyl)-2,7-diazaspiro[4.4]nonan-2-yl)pyrimidin-5-yl)oxy)-[1,1′-biphenyl]-4-carbonitrile] | < 100 nM | 100 to 1000 nM |
| CC(C)N(C)C(=O)c1cc(F)ccc1Oc1cncnc1N1CC2(CN(CC[C@H]3CC[C@H](NC(=O)OC(C)(C)C)CC3)C2)C1 [Example 134, tert-butyl ((1r,4r)-4-(2-(6-(5-(4-fluoro-2-(isopropyl(methyl)carbamoyl)phenoxy)pyrimidin-4-yl)-2,6-diazaspiro[3.3]heptan-2-yl)ethyl)cyclohexyl) carbamate] | < 100 nM | 100 to 1000 nM |

Results, then the compound that gave them:

| IC50 [1] | EC50 [2] | SMILES |
| --- | --- | --- |
| < 100 nM | 100 to 1000 nM | CC(C)(O)CCc1cc(F)ccc1Oc1cncnc1N1CCC2(CCN(Cc3ccc4[nH]c(=O)[nH]c4c3)C2)C1 (stereo not drawn) [Example 36, 5-((7-(5-(4-fluoro-2-(3-hydroxy-3-methylbutyl)phenoxy)pyrimidin-4-yl)-2,7-diazaspiro[4.4]nonan-2-yl)methyl)-1H-benzo[d]imidazol-2(3H)-one] |
| < 100 nM | < 100 nM | CC(C)N(C)C(=O)c1cc(F)ccc1Oc1cncnc1N1CCC2(CCN(Cc3ccc4[nH]c(=O)[nH]c4c3)C2)C1 (stereo not drawn) [Example 183, 5-fluoro-N-isopropyl-N-methyl-2-((4-(7-((2-oxo-2,3-dihydro-1H-benzo[d]imidazol-5-yl)methyl)-2,7-diazaspiro[4.4]nonan-2-yl)pyrimidin-5-yl)oxy)benzamide] |
| < 100 nM | 100 to 1000 nM | COCCn1c(=O)[nH]c2cc(CN3CCC4(CCN(c5ncncc5Oc5ccc(F)cc5C(=O)N(C)C(C)C)C4)C3)ccc21 (stereo not drawn) [Example 129, 5-fluoro-N-isopropyl-2-((4-(7-((1-(2-methoxyethyl)-2-oxo-2,3-dihydro-1H-benzo[d]imidazol-5-yl)methyl)-2,7-diazaspiro[4.4]nonan-2-yl)pyrimidin-5-yl)oxy)-N-methyl-benzamide] |
| < 100 nM | 100 to 1000 nM | CCN(CC)C(=O)c1cc(F)ccc1Oc1cncnc1N1CCC2(CCN(Cc3ccc4[nH]c(=O)[nH]c4c3)C2)C1 (stereo not drawn) [Example 173, N,N-diethyl-5-fluoro-2-((4-(7-((2-oxo-2,3-dihydro-1H-benzo[d]imidazol-5-yl)methyl)-2,7-diazaspiro[4.4]nonan-2-yl)pyrimidin-5-yl)oxy)benzamide] |
| < 100 nM | 100 to 1000 nM | CC(C)N(C)C(=O)c1cc(F)ccc1Oc1cncnc1N1CCC2(CCN(Cc3ccc4c(c3)NC(=O)C4(C)C)C2)C1 (stereo not drawn) [Example 202, 2-((4-(7-((3,3-dimethyl-2-oxoindolin-6-yl)methyl)-2,7-diazaspiro[4.4]nonan-2-yl)pyrimidin-5-yl)oxy)-5-fluoro-N-isopropyl-N-methylbenzamide] |
| < 100 nM | < 100 nM | CC(C)N(C(=O)c1cc(F)ccc1Oc1cncnc1N1CCC2(CCN(Cc3ccc4c(c3)[nH]c(=O)n4CCO)C2)C1)C(C)C (single isomer, unassigned) [Example 3A, 5-fluoro-2-((4-(7-((1-(2-hydroxyethyl)-2-oxo-2,3-dihydro-1H-benzo[d]imidazol-5-yl)methyl)-2,7-diazaspiro[4.4]nonan-2-yl)pyrimidin-5-yl)oxy)-N,N-diisopropylbenzamide] |
| < 100 nM | < 100 nM | CC(C)C(=O)N(C)c1cc(F)ccc1Oc1cncnc1N1CCC2(CCN(Cc3ccc4[nH]c(=O)[nH]c4c3)C2)C1 (stereo not drawn) [Example 76, N-(5-fluoro-2-((4-(7-((2-oxo-2,3-dihydro-1H-benzo[d]imidazol-5-yl)methyl)-2,7-diazaspiro[4.4]nonan-2-yl)pyrimidin-5-yl)oxy)phenyl)-N-methylisobutyramide] |
